The source of these data is US9345766B2, “Combination therapies comprising anti-ERBB3 agents” (Merrimack Pharmaceuticals, Inc., priority 2012, dated 2016).

The assay relates to phospho-ErbB3 (pErbB3). It is filed as cell-based. As to conditions: incubation 15 minutes to 24 hours. The protocol: Cell lysates are probed for phospho-ErbB3 (pErbB3), and phospho-AKT (pAKT) by ELISA as described previously (Schoeberl et al, 2009) Inhibitor IC50 values are calculated by fitting dose-response data to a 4-parameter sigmoidal curve (GraphPad Prism®, GraphPad Software, Inc., La Jolla, Calif.).
Model-generated dose-response curves overlay the experimental data (FIG. 7a). […] Untreated and heregulin-stimulated cells were probed for pErbB3 and pAKT and the IC50 was calculated (FIG. 7b).
Amounts of pAKT and pErbB3 were measured by ELISA essentially as described.

As to “MM-111: bispecific anti-ErbB2/anti-ErbB3 antibody, scFv HSA conjugate, amino acid sequence SEQ ID NO:1”, the “ability to inhibit heregulin-induced ErbB3 activation relative to lapatinib” value is listed as “superior to lapatinib by greater than an order of magnitude”.
